Results: patent US11078216B2, “Bisaryl amides as NRF2 activators” (GLAXOSMITHKLINE INTELLECTUAL PROPERTY DEVELOPMENT LIMITED, priority 2016, dated 2021)

System: NRF2 (NQO1 activity as marker for NRF2 activation), BEAS-2B cells
Test: BEAS-2B NQO1 MTT Assay
Assay type: cell-based
Conditions: Homo sapiens, EC50 of NQO1 specific activity induction, 48 hours incubation, read-out: EC50
Method in brief: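 BEAS-2B cells were exposed to compound for 48 h at 37° C, 5% CO2, then lysed. NQO1 activity was measured kinetically by MTT reduction at 570 nm over 30 minutes; EC50 came from 3-parameter fit of Delta OD/min versus log concentration.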

Structure (SMILES)	EC50 [nM]
CC[C@@H]1CN(Cc2cc([C@@H](c3ccc4c(nnn4CC)c3C)C(C)(C)NC(=O)c3cnc(OCCO)nc3)ccc2C)S(=O)(=O)c2ccccc2O1 [Example 161, N-((S)-1-(3-(((R)-4-Ethyl-1,1-dioxido-3,4-dihydro-2H-benzo[b][1,4,5]oxathiazepin-2-yl)methyl)-4-methylphenyl)-1-(1-ethyl-4-methyl-1H-benzo[d][1,2,3]triazol-5-yl)-2-methylpropan-2-yl)-2-(2-hydroxyethoxy)pyrimidine-5-carboxamide]	10 to 100
CC[C@@H]1CN(Cc2cc([C@@H](c3ccc4c(nnn4CC)c3C)C(C)(C)NC(=O)c3cnc(N(C)C)nc3)ccc2C)S(=O)(=O)c2ccccc2O1 [Example 162]	10 to 100
CCOCCOc1ncc(C(=O)NC(C)(C)[C@@H](c2ccc(C)c(CN3C[C@@H](CC)Oc4ccccc4S3(=O)=O)c2)c2ccc3c(nnn3CC)c2C)cn1 [Example 163, 2-(2-Ethoxyethoxy)-N-((S)-1-(3-(((R)-4-ethyl-1,1-dioxido-3,4-dihydro-2H-benzo[b][1,4,5]oxathiazepin-2-yl)methyl)-4-methylphenyl)-1-(1-ethyl-4-methyl-1H-benzo[d][1,2,3]triazol-5-yl)-2-methylpropan-2-yl)pyrimidine-5-carboxamide]	1 to 10
CC[C@@H]1CN(Cc2cc([C@@H](c3ccc4c(nnn4CC)c3C)C(C)(C)NC(=O)c3cnc(N4CCOCC4)nc3)ccc2C)S(=O)(=O)c2ccccc2O1 [Example 164, N-((S)-1-(3-(((R)-4-Ethyl-1,1-dioxido-3,4-dihydro-2H-benzo[b][1,4,5]oxathiazepin-2-yl)methyl)-4-methylphenyl)-1-(1-ethyl-4-methyl-1H-benzo[d][1,2,3]triazol-5-yl)-2-methylpropan-2-yl)-2-morpholinopyrimidine-5-carboxamide]	10 to 100
CC[C@@H]1CN(Cc2cc([C@@H](c3ccc4c(nnn4CC)c3C)C(C)(C)NC(=O)c3cnc(N4CCN(C)CC4)nc3)ccc2C)S(=O)(=O)c2ccccc2O1 [Example 165, N-((S)-1-(3-(((R)-4-Ethyl-1,1-dioxido-3,4-dihydro-2H-benzo[b][1,4,5]oxathiazepin-2-yl)methyl)-4-methylphenyl)-1-(1-ethyl-4-methyl-1H-benzo[d][1,2,3]triazol-5-yl)-2-methylpropan-2-yl)-2-(4-methylpiperazin-1-yl)pyrimidine-5-carboxamide]	10 to 100
CC[C@@H]1CN(Cc2cc([C@@H](c3ccc4c(nnn4CC)c3C)C(C)(C)NC(=O)c3cccnc3)ccc2C)S(=O)(=O)c2cccnc2O1 [Example 166, N—((S)-1-(3-(((R)-4-Ethyl-1,1-dioxido-3,4-dihydro-2H-pyrido[2,3-b][1,4,5]oxathiazepin-2-yl)methyl)-4-methylphenyl)-1-(1-ethyl-4-methyl-1H-benzo[d][1,2,3]triazol-5-yl)-2-methylpropan-2-yl)nicotinamide]	1 to 10
CC[C@@H]1CN(Cc2cc([C@@H](c3ccc4c(nnn4CC)c3C)C(C)(C)N(C)C(=O)c3cncnc3)ccc2C)S(=O)(=O)c2ccccc2O1 [Example 167, N—((S)-1-(3-(((R)-4-Ethyl-1,1-dioxido-3,4-dihydro-2H-benzo[b][1,4,5]oxathiazepin-2-yl)methyl)-4-methylphenyl)-1-(1-ethyl-4-methyl-1H-benzo[d][1,2,3]triazol-5-yl)-2-methylpropan-2-yl)-N-methylpyrimidine-5-carboxamide]	10 to 100
CC[C@@H]1CN(Cc2cc([C@H](CC(=O)N(C)c3cccnc3)c3ccc4c(nnn4CC)c3C)ccc2C)S(=O)(=O)c2cccnc2O1 [Example 169, (S)-3-(3-(((R)-4-ethyl-1,1-dioxido-3,4-dihydro-2H-pyrido[2,3-b][1,4,5]oxathiazepin-2-yl)methyl)-4-methylphenyl)-3-(1-ethyl-4-methyl-1H-benzo[d][1,2,3]triazol-5-yl)-N-methyl-N-(pyridin-3-yl)propanamide]	100 to 1000
CC[C@@H]1CN(Cc2cc([C@H](CC(=O)Nc3ccccc3)c3ccc4c(nnn4CC)c3C)ccc2C)S(=O)(=O)c2cccnc2O1 [Example 170, (S)-3-(3-(((R)-4-ethyl-1,1-dioxido-3,4-dihydro-2H-pyrido[2,3-b][1,4,5]oxathiazepin-2-yl)methyl)-4-methylphenyl)-3-(1-ethyl-4-methyl-1H-benzo[d][1,2,3]triazol-5-yl)-N-phenylpropanamide]	100 to 1000
CC[C@@H]1CN(Cc2cc([C@H](CC(=O)NC3CCCC3)c3ccc4c(nnn4CC)c3C)ccc2C)S(=O)(=O)c2cccnc2O1 [Example 171, (S)-N-cyclopentyl-3-(3-(((R)-4-ethyl-1,1-dioxido-3,4-dihydro-2H-pyrido[2,3-b][1,4,5]oxathiazepin-2-yl)methyl)-4-methylphenyl)-3-(1-ethyl-4-methyl-1H-benzo[d][1,2,3]triazol-5-yl)propanamide]	100 to 1000
CC[C@@H]1CN(Cc2cc([C@H](CC(=O)Nc3ccc(OC)nc3)c3ccc4c(nnn4CC)c3C)ccc2C)S(=O)(=O)c2cccnc2O1 [Example 172, (S)-3-(3-(((R)-4-ethyl-1,1-dioxido-3,4-dihydro-2H-pyrido[2,3-b][1,4,5]oxathiazepin-2-yl)methyl)-4-methylphenyl)-3-(1-ethyl-4-methyl-1H-benzo[d][1,2,3]triazol-5-yl)-N-(6-methoxypyridin-3-yl)propanamide]	100 to 1000
Cc1ccc([C@@H](c2ccc3c(nnn3C)c2C)C(C)(C)C(=O)Nc2cccnc2)cc1Cn1ccnc1CC1CCCCCC1 [Example 173, (S)-3-(3-((2-(cycloheptylmethyl)-1H-imidazol-1-yl)methyl)-4-methylphenyl)-3-(1,4-dimethyl-1H-benzo[d][1,2,3]triazol-5-yl)-2,2-dimethyl-N-(pyridin-3-yl)propanamide]	10 to 100
CCn1nnc2c(C)c([C@@H](CC(=O)Nc3cccnc3)c3ccc(C)c(CN4C[C@@H](C)Cc5ccc(C(F)(F)F)cc5S4(=O)=O)c3)ccc21 [Example 174, (S)-3-(1-ethyl-4-methyl-1H-benzo[d][1,2,3]triazol-5-yl)-3-(4-methyl-3-(((S)-4-methyl-1,1-dioxido-8-(trifluoromethyl)-4,5-dihydrobenzo[f][1,2]thiazepin-2(3H)-yl)methyl)phenyl)-N-(pyridin-3-yl)propanamide]	10 to 100
CCC1CCN(Cc2nccn2Cc2cc([C@@H](c3ccc4c(nnn4C)c3C)C(C)(C)C(=O)Nc3cccnc3)ccc2Cl)CC1 [Example 175, (S)-3-(4-chloro-3-((2-((4-ethylpiperidin-1-yl)methyl)-1H-imidazol-1-yl)methyl)phenyl)-3-(1,4-dimethyl-1H-benzo[d][1,2,3]triazol-5-yl)-2,2-dimethyl-N-(pyridin-3-yl)propanamide]	100 to 1000
CC[C@@H]1CN(Cc2cc([C@@H](c3ccc4c(nnn4CC)c3C)[C@@H](C)C(=O)Nc3cccnc3)ccc2C)S(=O)(=O)c2cccnc2O1 [Example 176]	1 to 10
CCn1nnc2c(C)c([C@H](c3ccc(C)c(CN4C[C@@H](C)Cc5cc(C(F)(F)F)ccc5S4(=O)=O)c3)[C@@H](C)C(=O)Nc3cccnc3)ccc21 [Example 177, (2R,3S)-3-(1-ethyl-4-methyl-1H-benzo[d][1,2,3]triazol-5-yl)-2-methyl-3-(4-methyl-3-(((S)-4-methyl-1,1-dioxido-7-(trifluoromethyl)-4,5-dihydrobenzo[f][1,2]thiazepin-2(3H)-yl)methyl)phenyl)-N-(pyridin-3-yl)propanamide]	1 to 10
CCn1nnc2c(C)c([C@@H](CC(=O)Nc3cccnc3)c3ccc(C)c(CN4C[C@@H](C)Cc5ccc(F)cc5S4(=O)=O)c3)ccc21 [Example 178, (S)-3-(1-ethyl-4-methyl-1H-benzo[d][1,2,3]triazol-5-yl)-3-(3-(((S)-8-fluoro-4-methyl-1,1-dioxido-4,5-dihydrobenzo[f][1,2]thiazepin-2(3H)-yl)methyl)-4-methylphenyl)-N-(pyridin-3-yl)propanamide]	10 to 100
CCn1nnc2c(C)c([C@H](c3ccc(C)c(CN4C[C@@H](C)Cc5ccc(C(F)(F)F)cc5S4(=O)=O)c3)[C@@H](C)C(=O)Nc3cccnc3)ccc21 [Example 179, (2R,3S)-3-(1-ethyl-4-methyl-1H-benzo[d][1,2,3]triazol-5-yl)-2-methyl-3-(4-methyl-3-(((S)-4-methyl-1,1-dioxido-8-(trifluoromethyl)-4,5-dihydrobenzo[f][1,2]thiazepin-2(3H)-yl)methyl)phenyl)-N-(pyridin-3-yl)propanamide]	1 to 10
CC[C@H]1Cc2ccc(C(F)(F)F)cc2S(=O)(=O)N(Cc2cc([C@@H](c3ccc4c(nnn4CC)c3C)[C@@H](C)C(=O)Nc3cccnc3)ccc2C)C1 [Example 180, (2R,3S)-3-(3-(((S)-4-ethyl-1,1-dioxido-8-(trifluoromethyl)-4,5-dihydrobenzo[f][1,2]thiazepin-2(3H)-yl)methyl)-4-methylphenyl)-3-(1-ethyl-4-methyl-1H-benzo[d][1,2,3]triazol-5-yl)-2-methyl-N-(pyridin-3-yl)propanamide]	1 to 10
CCn1nnc2c(C)c([C@@H](CC(=O)Nc3cccnc3)c3ccc(C)c(CN4C[C@@H](C)Cc5ccc(C(F)(F)F)cc5S4(=O)=O)c3)cc(OC)c21 [Example 181, (S)-3-(1-ethyl-7-methoxy-4-methyl-1H-benzo[d][1,2,3]triazol-5-yl)-3-(4-methyl-3-(((S)-4-methyl-1,1-dioxido-8-(trifluoromethyl)-4,5-dihydrobenzo[f][1,2]thiazepin-2(3H)-yl)methyl)phenyl)-N-(pyridin-3-yl)propanamide]	10 to 100
CC[C@@H]1CN(Cc2cc([C@@H](c3ccc4c(nnn4CC)c3C)[C@@H](C)C(N)=O)ccc2C)Cc2ncccc2O1 [Example 182, (2R,3S)-3-(3-(((R)-2-ethyl-2,3-dihydropyrido[2,3-f][1,4]oxazepin-4(5H)-yl)methyl)-4-methylphenyl)-3-(1-ethyl-4-methyl-1H-benzo[d][1,2,3]triazol-5-yl)-2-methylpropanamide]	100 to 1000
